# Tests used:
# [1] = target: PKR(wt) (Homo sapiens, UniProt P30613); test: Luminescence Biochemical Assay (Kinase Glo Plus), wild type PKR; conditions: without FBP; for activation at 1.54 µM: 1.54 μM compound, read-out: AC50 LUM KGP woFBP % Fold@1.54 μM mean; for AC50: read-out: AC50 LUM KGP woFBP AC50 μM gmean; for Emax: read-out: AC50 LUM KGP woFBP MAX % FOLD mean
# [2] = target: PKR(G332S) (Homo sapiens, UniProt P30613, G332S); test: Luminescence Biochemical Assay (Kinase Glo Plus), PKR G332S mutant; conditions: with FBP; for activation at 1.54 µM: 1.54 μM compound, read-out: AC50 LUM KGP FBP % Fold@1.54 μM mean; for AC50: read-out: AC50 LUM KGP FBP AC50 μM gmean (column A); for Emax: read-out: AC50 LUM KGP FBP MAX % FOLD mean
# Sequence of PKR(G332S) (P30613 whole entry G332S): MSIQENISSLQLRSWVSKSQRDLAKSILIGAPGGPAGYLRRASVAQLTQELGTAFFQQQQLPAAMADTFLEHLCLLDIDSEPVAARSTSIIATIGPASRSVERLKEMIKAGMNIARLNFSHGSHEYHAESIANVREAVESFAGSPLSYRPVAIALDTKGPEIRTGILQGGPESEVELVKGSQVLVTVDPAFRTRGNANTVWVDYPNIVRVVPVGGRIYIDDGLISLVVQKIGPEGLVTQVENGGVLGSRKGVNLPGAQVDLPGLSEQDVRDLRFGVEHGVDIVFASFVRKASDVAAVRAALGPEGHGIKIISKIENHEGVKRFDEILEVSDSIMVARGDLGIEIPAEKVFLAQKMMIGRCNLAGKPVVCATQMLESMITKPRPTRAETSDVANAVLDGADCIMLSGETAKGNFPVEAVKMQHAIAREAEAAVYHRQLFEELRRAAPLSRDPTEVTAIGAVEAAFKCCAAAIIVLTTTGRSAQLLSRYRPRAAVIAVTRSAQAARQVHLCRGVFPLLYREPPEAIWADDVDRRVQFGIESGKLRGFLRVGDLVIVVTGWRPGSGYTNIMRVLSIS
# [3] = target: PKR(R510Q) (Homo sapiens, UniProt P30613, R510Q); test: Luminescence Biochemical Assay (Kinase Glo Plus), PKR R510Q mutant; conditions: without FBP; for activation at 1.54 µM: 1.54 μM compound, read-out: AC50 LUM KGP woFBP % Fold@1.54 μM mean; for AC50: read-out: AC50 LUM KGP woFBP AC50 μM gmean; for Emax: read-out: AC50 LUM KGP woFBP MAX % FOLD mean
# Sequence of PKR(R510Q) (P30613 whole entry R510Q): as the sequence (P30613 whole entry G332S) above, with S332G, R510Q counted along it
# Sequence of PKR(wt) (P30613 whole entry): as the sequence (P30613 whole entry G332S) above, with S332G counted along it
Compound,activation at 1.54 µM [1] [%],AC50 [1] [µM],Emax [1] [%],activation at 1.54 µM [2] [%],AC50 [2] [µM],Emax [2] [%],activation at 1.54 µM [3] [%],AC50 [3] [µM],Emax [3] [%]
"CC[C@@H](O)C(=O)N1CC2=C(C1)CN(S(=O)(=O)c1ccc3c(c1)N(C)CCO3)C2 [Example 18-76, (2R)-2-hydroxy-1-{5-[(4-methyl-3,4-dihydro-2H-1,4-benzoxazin-6-yl)sulfonyl]-1H,2H,3H,4H,5H,6H-pyrrolo[3,4-c]pyrrol-2-yl}butan-1-one]",75 to 250,0.1 to 1,75 to 250,75 to 250,1 to 40,75 to 250,75 to 250,1 to 40,75 to 250
"O=C(NCc1cccc(F)c1)N1CC2=C(C1)CN(S(=O)(=O)c1ccc(OC(F)F)cc1)C2 [Example 21-14, 5-[4-(Difluoromethoxy)benzenesulfonyl]-N-[(3-fluorophenyl)methyl]-1H,2H,3H,4H,5H,6H-pyrrolo[3,4-c]pyrrole-2-carboxamide]",250 to 50000,0.1 to 1,250 to 500,75 to 250,0.1 to 1,75 to 250,250 to 50000,1 to 40,250 to 500
"O=C([C@H](O)c1ccc(F)cc1)N1CC2=C(C1)CN(S(=O)(=O)c1cccnc1)C2 [Example 18-62, (2R)-2-(4-fluorophenyl)-2-hydroxy-1-[5-(pyridine-3-sulfonyl]-1H,2H,3H,4H,5H,6H-pyrrolo[3,4-c]pyrrol-2-yl]ethan-1-one]",75 to 250,0.1 to 1,75 to 250,75 to 250,1 to 40,75 to 250,75 to 250,1 to 40,250 to 500
"O=C(Cc1ccccn1)N1CC2=C(C1)CN(S(=O)(=O)c1ccc(OC(F)F)cc1)C2 [Example 8-1, 1-(5-[[4-(difluoromethoxy)benzene]sulfonyl]-1H,2H,3H,4H,5H,6H-pyrrolo[3,4-c]pyrrol-2-yl)-2-(pyridin-2-yl)ethan-1-one]",250 to 50000,0.1 to 1,250 to 500,75 to 250,≤ 0.1,75 to 250,250 to 50000,0.1 to 1,250 to 500
"Cc1nc(CC(=O)N2CC3=C(C2)CN(S(=O)(=O)c2ccccn2)C3)cs1 [Example 18-68, 2-(2-Methyl-1,3-thiazol-4-yl)-1-[5-(pyridine-2-sulfonyl)-1H,2H,3H,4H,5H,6H-pyrrolo[3,4-c]pyrrol-2-yl]ethan-1-one]",75 to 250,1 to 40,250 to 500,75 to 250,0.1 to 1,75 to 250,75 to 250,1 to 40,75 to 250
"CN1CCOc2ccc([C@@H](O)C(=O)N3CC4=C(C3)CN(S(=O)(=O)c3ccc(OC(F)F)cc3)C4)cc21 (single isomer, unassigned) [Example 10-1]",75 to 250,1 to 40,250 to 500,75 to 250,0.1 to 1,75 to 250,75 to 250,1 to 40,250 to 500
"O=C([C@@H](O)c1ccc2c(c1)NCCO2)N1CC2=C(C1)CN(S(=O)(=O)c1ccc(OC(F)F)cc1)C2 (single isomer, unassigned) [Example 9-5]",250 to 50000,≤ 0.1,250 to 500,75 to 250,≤ 0.1,75 to 250,250 to 50000,≤ 0.1,250 to 500
"Cc1nn(C)c(Cl)c1S(=O)(=O)N1CC2=C(CN(C(=O)[C@H](O)c3ccccc3)C2)C1 [Example 18-43, (2R)-1-{5-[(5-chloro-1,3-dimethyl-1H-pyrazol-4-yl)sulfonyl]-1H,2H,3H,4H,5H,6H-pyrrolo[3,4-c]pyrrol-2-yl}-2-hydroxy-2-phenylethan-1-one]",75 to 250,1 to 40,75 to 250,75 to 250,1 to 40,75 to 250,75 to 250,1 to 40,75 to 250
"O=C([C@H]1CCCO1)N1CC2=C(C1)CN(S(=O)(=O)c1ccccn1)C2 [Example 18-60, 2-({5-[(2R)-oxolane-2-carbonyl]-1H,2H,3H,4H,5H,6H-pyrrolo[3,4-c]pyrrol-2-yl}sulfonyl)pyridine]",75 to 250,1 to 40,250 to 500,75 to 250,1 to 40,75 to 250,75 to 250,1 to 40,250 to 500
"O=C(N1CCOCC1)N1CC2=C(C1)CN(S(=O)(=O)c1ccc3ncsc3c1)C2 [Example 6-1, (5-(benzo[d]thiazol-6-ylsulfonyl)-3,4,5,6-tetrahydropyrrolo[3,4-c]pyrrol-2(1H)-yl)(morpholino)methanone]",75 to 250,1 to 40,250 to 500,75 to 250,1 to 40,75 to 250,75 to 250,1 to 40,250 to 500
"Cc1ccc(CC(=O)N2CC3=C(C2)CN(S(=O)(=O)c2ccc(OC(F)F)cc2)C3)cn1 [Example 18-30, 1-{5-[4-(Difluoromethoxy)benzenesulfonyl]-1H,2H,3H,4H,5H,6H-pyrrolo[3,4-c]pyrrol-2-yl}-2-(6-methylpyridin-3-yl)ethan-1-one]",250 to 50000,0.1 to 1,250 to 500,75 to 250,≤ 0.1,75 to 250,250 to 50000,0.1 to 1,250 to 500
"CN1CCOc2ccc([C@H](O)C(=O)N3CC4=C(C3)CN(S(=O)(=O)c3ccc(OC(F)F)cc3)C4)cc21 (single isomer, unassigned) [Example 10-2]",250 to 50000,≤ 0.1,250 to 500,75 to 250,≤ 0.1,75 to 250,250 to 50000,0.1 to 1,250 to 500
"CN1CCOc2ccc(S(=O)(=O)N3CC4=C(CN(C(=O)[C@H]5CCCO5)C4)C3)cc21 [Example 18-2, 4-Methyl-6-({5-[(2R)-oxolane-2-carbonyl]-1H,2H,3H,4H,5H,6H-pyrrolo[3,4-c]pyrrol-2-yl}sulfonyl)-3,4-dihydro-2H-1,4-benzoxazine]",75 to 250,0.1 to 1,75 to 250,75 to 250,1 to 40,75 to 250,75 to 250,1 to 40,75 to 250
"O=C(C(O)c1ccc(C(F)(F)F)cc1)N1CC2=C(C1)CN(S(=O)(=O)c1ccc(OC(F)F)cc1)C2 (stereo not drawn) [Example 18-32, 1-{5-[4-(Difluoromethoxy)benzenesulfonyl]-1H,2H,3H,4H,5H,6H-pyrrolo[3,4-c]pyrrol-2-yl}-2-hydroxy-2-[4-(trifluoromethyl)phenyl]ethan-1-one]",75 to 250,0.1 to 1,250 to 500,75 to 250,0.1 to 1,75 to 250,75 to 250,0.1 to 1,250 to 500
"Cc1nc(CC(=O)N2CC3=C(C2)CN(S(=O)(=O)c2ccc(OC(F)F)cc2)C3)cs1 [Example 18-20, 1-{5-[4-(Difluoromethoxy)benzene-sulfonyl]-1H,2H,3H,4H,5H,6H-pyrrolo[3,4-c]pyrrol-2-yl}-2-(2-methyl-1,3-thiazol-4-yl)ethan-1-one]",250 to 50000,0.1 to 1,250 to 500,75 to 250,1 to 40,75 to 250,75 to 250,1 to 40,250 to 500
"O=C(Cc1cnccn1)N1CC2=C(C1)CN(S(=O)(=O)c1ccc(OC(F)F)cc1)C2 [Example 18-29, 1-{5-[4-(Difluoromethoxy)benzenesulfonyl]-1H,2H,3H,4H,5H,6H-pyrrolo[3,4-c]pyrrol-2-yl}-2-(pyrazin-2-yl)ethan-1-one]",75 to 250,1 to 40,250 to 500,75 to 250,≤ 0.1,75 to 250,75 to 250,1 to 40,250 to 500
"Cc1cccc(S(=O)(=O)N2CC3=C(CN(C(=O)NCc4ccccc4F)C3)C2)n1 [Example 15-1, N-[(2-fluorophenyl)methyl]-5-(6-methylpyridine-2-sulfonyl)-1H,2H,3H,4H,5H,6H-pyrrolo[3,4-c]pyrrole-2-carboxamide]",250 to 50000,≤ 0.1,250 to 500,75 to 250,0.1 to 1,75 to 250,250 to 50000,≤ 0.1,250 to 500
"O=C(Cn1cccn1)N1CC2=C(C1)CN(S(=O)(=O)c1ccc(OC(F)F)cc1)C2 [Example 18-21, 1-{5-[4-(Difluoromethoxy)benzenesulfonyl]-1H,2H,3H,4H,5H,6H-pyrrolo[3,4-c]pyrrol-2-yl}-2-(1H-pyrazol-1-yl)ethan-1-one]",75 to 250,1 to 40,250 to 500,75 to 250,0.1 to 1,75 to 250,75 to 250,1 to 40,250 to 500

# — patent publication US12122778B2, “Activating pyruvate kinase R” (Novo Nordisk Health Care AG, priority 2018, dated 2024)
